Measurements published in patent US4795743A, “2'-deamino-2'-hydroxyistamycin Bo derivatives of low toxicity” (Zaidan Hojin Biseibutsu Kagaku Kenkyu Kai, priority 1986, dated 1989).
In brackets after ≈: the same amount, converted by molar mass. Like-named read-outs stand apart in the source and are kept apart here.

Columns and labels:
[1] = system: Mycobacterium smegmatis ATCC 607; assay: Antibacterial spectrum, standard serial dilution method; type: cell-based; conditions: Mycolicibacterium smegmatis, read-out: Minimum Growth Inhibitory Concentration
[2] = system: Pseudomonas aeruguinosa B-13; assay: as above; type: cell-based, Pseudomonas aeruginosa; conditions: B13, Muller-Hinton medium, 37° C., 18 hours, read-out: Minimum Growth Inhibitory Concentration
[3] = system: Escherichia coli K-12 LA290 R55; assay: as above; type: cell-based; conditions: K12LA290R55, 18 h, read-out: Minimum Growth Inhibitory Concentration
[4] = system: Escherichia coli K-12 C600 R135; assay: as above; type: cell-based; conditions: K12C600R135, E. coli K-12 C600 R135, Muller-Hinton medium, 37° C., 18 hours, read-out: Minimum Growth Inhibitory Concentration
[5] = system: Shigella sonnei; assay: as above; type: cell-based; conditions: Muller-Hinton medium, 37° C., 18 hours, read-out: Minimum Growth Inhibitory Concentration
[6] = system: Shigella dysernteriae JS11910; assay: as above; type: cell-based; conditions: Muller-Hinton medium, 37° C., 18 hours, read-out: Minimum Growth Inhibitory Concentration
[7] = system: Shibella flexneri 4b JS11811; assay: as above; type: cell-based; conditions: 18 h, read-out: Minimum Growth Inhibitory Concentration
[8] = system: Proteus rettgeri GN466; assay: as above; type: cell-based; conditions: Providencia rettgeri, read-out: Minimum Growth Inhibitory Concentration
[9] = system: Staphylococcus aureus 209P; assay: Antibacterial spectrum, standard serial dilution method of Japan Society of Chemotherapy; type: cell-based; conditions: read-out: Minimum Growth Inhibitory Concentration
[10] = system: Escherichia coli K-12 ML1629; assay: Antibacterial spectrum, standard serial dilution method; type: cell-based; conditions: K12ML1629, E. coli K-12 ML1629, Muller-Hinton medium, 37° C., 18 hours, read-out: Minimum Growth Inhibitory Concentration
[11] = system: Pseudomonas aeruguinosa ROS 134/PU21; assay: as above; type: cell-based, Pseudomonas aeruginosa; conditions: ROS134/PU21, 18 h, read-out: Minimum Growth Inhibitory Concentration
[12] = system: Pseudomonas maltophilia GN907; assay: as above; type: cell-based; conditions: Stenotrophomonas maltophilia, Muller-Hinton medium, 37° C., 18 hours, read-out: Minimum Growth Inhibitory Concentration
[13] = system: Staphylococcus aureus Ap 01; assay: as above; type: cell-based; conditions: AP01, 18 h, read-out: Minimum Growth Inhibitory Concentration
[14] = system: Pseudomonas aeruguinosa K-Ps 102; assay: as above; type: cell-based, Pseudomonas aeruginosa; conditions: read-out: Minimum Growth Inhibitory Concentration
[15] = system: Escherichia coli K-12; assay: as above; type: cell-based; conditions: read-out: Minimum Growth Inhibitory Concentration
[16] = system: Pseudomonas aeruguinosa No.12; assay: as above; type: cell-based, Pseudomonas aeruginosa; conditions: Muller-Hinton medium, 37° C., 18 hours, read-out: Minimum Growth Inhibitory Concentration
[17] = system: Micrococcus flavus FDA 16; assay: as above; type: cell-based; conditions: read-out: Minimum Growth Inhibitory Concentration
[18] = system: Escherichia coli K-12 R388; assay: as above; type: cell-based; conditions: K12R388, 18 h, read-out: Minimum Growth Inhibitory Concentration
[19] = system: Escherichia coli K-12 LA290 R64; assay: as above; type: cell-based; conditions: K12LA290R64, 18 h, read-out: Minimum Growth Inhibitory Concentration
[20] = system: Salmonella typhi T-63; assay: as above; type: cell-based; conditions: Salmonella enterica, 18 h, read-out: Minimum Growth Inhibitory Concentration
[21] = system: Salmonella enteritidis 1891; assay: as above; type: cell-based; conditions: Salmonella enterica, Muller-Hinton medium, 37° C., 18 hours, read-out: Minimum Growth Inhibitory Concentration
[22] = system: Escherichia coli K-12 LA290 R56; assay: as above; type: cell-based; conditions: K12LA290R56, 18 h, read-out: Minimum Growth Inhibitory Concentration
[23] = system: Serratia sp. SOU; assay: as above; type: cell-based; conditions: read-out: Minimum Growth Inhibitory Concentration
[24] = system: Escherichia coli K-12 ML1410; assay: as above; type: cell-based; conditions: read-out: Minimum Growth Inhibitory Concentration
[25] = system: Serratia marcescens; assay: as above; type: cell-based; conditions: 18 h, read-out: Minimum Growth Inhibitory Concentration
[26] = system: Staphylococcus aureus Smith; assay: as above; type: cell-based; conditions: read-out: Minimum Growth Inhibitory Concentration
[27] = system: Bacillus cereus ATCC 1-702; assay: as above; type: cell-based; conditions: read-out: Minimum Growth Inhibitory Concentration
[28] = system: Klebsiella Pneumoniae PCI 602; assay: as above; type: cell-based; conditions: read-out: Minimum Growth Inhibitory Concentration
[29] = system: Escherichia coli W677; assay: as above; type: cell-based; conditions: read-out: Minimum Growth Inhibitory Concentration
[30] = system: Pseudomonas aeruguinosa GN315; assay: as above; type: cell-based, Pseudomonas aeruginosa; conditions: read-out: Minimum Growth Inhibitory Concentration
[31] = system: Providencia sp. Pv16; assay: as above; type: cell-based; conditions: read-out: Minimum Growth Inhibitory Concentration
[32] = system: Escherichia coli NIHJ; assay: as above; type: cell-based; conditions: 18 h, read-out: Minimum Growth Inhibitory Concentration
[33] = ATCC607, Mycobacterium smegmatis ATCC 607, Muller-Hinton medium, 37° C., 18 hours
[34] = Proteus rettgeri GN466, Muller-Hinton medium, 37° C., 18 hours
[35] = S. aureus 209P, Muller-Hinton medium, 37° C., 18 hours
[36] = KPS102, Pseudomonas aeruguinosa K-Ps 102, Muller-Hinton medium, 37° C., 18 hours
[37] = ATCC1, Bacillus cereus ATCC 1-702, Muller-Hinton medium, 37° C., 18 hours
[38] = Pseudomonas aeruguinosa GN315, Muller-Hinton medium, 37° C., 18 hours
[39] = Micrococcus flavus, FDA16, 18 h

SMILES	MIC [1, 33] [µg/mL]	MIC [2] [µg/mL]	MIC [3] [µg/mL]	MIC [4] [µg/mL]	MIC [5] [µg/mL]	MIC [6] [µg/mL]	MIC [7] [µg/mL]	MIC [8, 34] [µg/mL]	MIC [10] [µg/mL]	MIC [11] [µg/mL]	MIC [12] [µg/mL]	MIC [13] [µg/mL]	MIC [16] [µg/mL]	MIC [18] [µg/mL]	MIC [19] [µg/mL]	MIC [20] [µg/mL]	MIC [21] [µg/mL]	MIC [22] [µg/mL]	MIC [25] [µg/mL]	MIC [32] [µg/mL]	further results
CNCC1CCC(O)C(OC2C(N)CC(OC)C(N(C)C(=O)CN)C2O)O1 (stereo not drawn) [Compound No. 1, 2'-Deamino-2'-hydroxyistamycin B]	25 (≈ 64 µM)	> 100	6.25 (≈ 16 µM)	3.13 (≈ 8.02 µM)	6.25 (≈ 16 µM)	6.25 (≈ 16 µM)	12.5 (≈ 32 µM)	3.13 (≈ 8.02 µM)	6.25 (≈ 16 µM)	> 100	> 100	6.25 (≈ 16 µM)	100 (≈ 256 µM)	3.13 (≈ 8.02 µM)	3.13 (≈ 8.02 µM)	1.56 (≈ 4 µM)	6.25 (≈ 16 µM)	3.13 (≈ 8.02 µM)	12.5 (≈ 32 µM)	1.56 (≈ 4 µM)	MIC [9, 35]: 3.13 µg/mL (≈ 8.02 µM); MIC [14, 36]: > 100 µg/mL; MIC ([15]; K12, E. coli K-12, Muller-Hinton medium, 37° C., 18 hours): 3.13 µg/mL (≈ 8.02 µM); MIC ([17]; FDA16, Micrococcus flavus FDA 16, Muller-Hinton medium, 37° C., 18 hours): 25 µg/mL (≈ 64 µM); MIC ([23]; Serratia, 18 h): 6.25 µg/mL (≈ 16 µM); MIC ([24]; K12ML1410, 18 h): 6.25 µg/mL (≈ 16 µM); MIC ([26]; S. aureus Smith, Muller-Hinton medium, 37° C., 18 hours): 3.13 µg/mL (≈ 8.02 µM); MIC [27, 37]: 50 µg/mL (≈ 128 µM); MIC ([28]; Klebsiella pneumoniae, 18 h): 6.25 µg/mL (≈ 16 µM); MIC ([29]; W677, 18 h): 1.56 µg/mL (≈ 4 µM); MIC [30, 38]: 100 µg/mL (≈ 256 µM); MIC ([31]; Providencia, SP.PV16, 18 h): 6.25 µg/mL (≈ 16 µM)
CNCC1CCC(O)C(OC2C(N)CC(O)C(N(C)C(=O)CN)C2O)O1 (stereo not drawn) [Compound No. 2, 2'-Deamino-2'-hydroxy-3-O-demethylistamycin B]		25 (≈ 66.4 µM)	6.25 (≈ 16.6 µM)	3.13 (≈ 8.31 µM)	6.25 (≈ 16.6 µM)	12.5 (≈ 33.2 µM)	12.5 (≈ 33.2 µM)		6.25 (≈ 16.6 µM)	50 (≈ 133 µM)	> 100	6.25 (≈ 16.6 µM)	25 (≈ 66.4 µM)	3.13 (≈ 8.31 µM)	3.13 (≈ 8.31 µM)	0.78 (≈ 2.07 µM)	12.5 (≈ 33.2 µM)	3.13 (≈ 8.31 µM)	12.5 (≈ 33.2 µM)	1.56 (≈ 4.14 µM)	MIC ([1]; ATCC607, 18 h): 6.25 µg/mL (≈ 16.6 µM); MIC ([8]; GN466, 18 h): 1.56 µg/mL (≈ 4.14 µM); MIC [9, 35]: 3.13 µg/mL (≈ 8.31 µM); MIC ([14]; Pseudomonas, KPS102, 18 h): 12.5 µg/mL (≈ 33.2 µM); MIC ([15]; K12, 18 h): 1.56 µg/mL (≈ 4.14 µM); MIC [17, 39]: 12.5 µg/mL (≈ 33.2 µM); MIC ([23]; Serratia sp. SOU, Muller-Hinton medium, 37° C., 18 hours): 3.13 µg/mL (≈ 8.31 µM); MIC ([24]; K12ML1410, 18 h): 6.25 µg/mL (≈ 16.6 µM); MIC ([26]; 18 h): 1.56 µg/mL (≈ 4.14 µM); MIC ([27]; Bacillus cereus, ATCC1, 18 h): 6.25 µg/mL (≈ 16.6 µM); MIC ([28]; Klebsiella pneumoniae, 18 h): 6.25 µg/mL (≈ 16.6 µM); MIC ([29]; E. coli W677, Muller-Hinton medium, 37° C., 18 hours): 3.13 µg/mL (≈ 8.31 µM); MIC ([30]; Pseudomonas, GN315, 18 h): 12.5 µg/mL (≈ 33.2 µM); MIC ([31]; Providencia sp. Pv16, Muller-Hinton medium, 37° C., 18 hours): 3.13 µg/mL (≈ 8.31 µM)
CNCC1CCC(O)C(OC2C(N)CC(OC)C(N(C)C(=O)CCN)C2O)O1 (stereo not drawn) [Compound No. 3, 4-N-(β-Alanyl)-2'-deamino-2'-hydroxyistamycin Bo]	25 (≈ 61.8 µM)	100 (≈ 247 µM)	12.5 (≈ 30.9 µM)	3.13 (≈ 7.74 µM)	6.25 (≈ 15.5 µM)	3.13 (≈ 7.74 µM)	6.25 (≈ 15.5 µM)	0.78 (≈ 1.93 µM)	6.25 (≈ 15.5 µM)	> 100	> 100	6.25 (≈ 15.5 µM)	100 (≈ 247 µM)	3.13 (≈ 7.74 µM)	3.13 (≈ 7.74 µM)	1.56 (≈ 3.86 µM)	6.25 (≈ 15.5 µM)	3.13 (≈ 7.74 µM)	6.25 (≈ 15.5 µM)	1.56 (≈ 3.86 µM)	MIC ([9]; 209P, 18 h): 6.25 µg/mL (≈ 15.5 µM); MIC [14, 36]: 50 µg/mL (≈ 124 µM); MIC ([15]; K12, 18 h): 3.13 µg/mL (≈ 7.74 µM); MIC [17, 39]: 6.25 µg/mL (≈ 15.5 µM); MIC ([23]; Serratia, 18 h): 3.13 µg/mL (≈ 7.74 µM); MIC ([24]; K12ML1410, E. coli K-12 ML1410, Muller-Hinton medium, 37° C., 18 hours): 12.5 µg/mL (≈ 30.9 µM); MIC ([26]; 18 h): 3.13 µg/mL (≈ 7.74 µM); MIC [27, 37]: 25 µg/mL (≈ 61.8 µM); MIC ([28]; Klebsiella Pneumoniae PCI 602, Muller-Hinton medium, 37° C., 18 hours): 12.5 µg/mL (≈ 30.9 µM); MIC ([29]; W677, 18 h): 3.13 µg/mL (≈ 7.74 µM); MIC [30, 38]: 50 µg/mL (≈ 124 µM); MIC ([31]; Providencia, SP.PV16, 18 h): 3.13 µg/mL (≈ 7.74 µM)
